What was measured:
[1] = system: Antigen Bet v1 from pollen; experiment: ELISA test of allergen-deactivating efficiency of the filter medium (birch pollen antigen); type: biochemical; conditions: summary of Table 1; acid on filter medium in dry state
Description: A carrier non-woven fabric of polyester spunbonded non-woven (weight per unit area 125 g/m^2) is finished in an allergen-deactivating manner with a mixture of lauric acid and citric acid. The allergen-deactivating doping of the carrier non-woven is carried out by applying a mixture of the active ingredients in aqueous solution to the carrier non-woven and subsequently drying the now finished non-woven fabric to thereby obtain a sample for analysis.
The size of the sample used in the test is 10 mm×10 mm.
Allergen sources used and antigens to be tested: • a) Allergen house dust mite: Antigen Der p1 from excrement • b) Allergen birch pollen: Antigen Bet v1 from pollen
Allergen sources from Allergon AB, Ängelholm, Sweden were used. […]

[2] = target: T1, Antigen Der p1 from excrement (Dermatophagoides pteronyssinus, UniProt P08176); experiment: ELISA test of allergen-deactivating efficiency of the filter medium (house dust mite antigen); type: biochemical; conditions: text summary of Table 4; compared with the acids used according to the invention
T1 construct: tissue Allergon AB, Ängelholm, Sweden; host or cells: house dust mite excrement
From the text: In the examples, ELISA (enzyme-linked immunosorbent assay) is used as a method for measuring the deactivation abilities of different active ingredient compositions in respect of particular allergens.
The ELISA method can measure allergen concentrations by assessing color changes due to antigen-antibody reactions.
A carrier non-woven fabric of polyester spunbonded non-woven (weight per unit area 125 g/m^2) is finished in an allergen-deactivating manner with a mixture of lauric acid and citric acid. […]
The absorption of the microplate is established according to the specifications of the ELISA kit manufacturer using a microplate reading device at a wavelength of 405 nm and thus the allergen concentration (antigen content) of each sample is determined.
To determine the allergen-deactivating efficiency, each antigen concentration of the sample reaction solution is determined according to the specifications of the ELISA kit manufacturer using a microplate reading device at a wavelength of 405 nm.
Here, the starting concentration and the measured allergen concentration of the sample correspond to an antigen-specific concentration in ng/ml. […]

T1 sequence (P08176 99-320): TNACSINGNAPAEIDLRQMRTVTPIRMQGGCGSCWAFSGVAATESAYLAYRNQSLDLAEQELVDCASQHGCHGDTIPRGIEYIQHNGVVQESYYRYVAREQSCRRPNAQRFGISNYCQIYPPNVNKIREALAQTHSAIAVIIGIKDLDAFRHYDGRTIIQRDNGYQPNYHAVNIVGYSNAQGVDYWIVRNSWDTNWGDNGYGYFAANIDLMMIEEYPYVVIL

SMILES | allergen-eliminating effect [1] | immunological effect [2]
O=C(O)CC(O)(CC(=O)O)C(=O)O [citric acid] | high allergen-eliminating effect | 
O=C([O-])[O-].[K+].[K+] [potassium carbonate] |  | significantly lower than that of the acids used according to the invention
O=C(O)CC(O)C(=O)O (stereo not drawn) [malic acid] | high allergen-eliminating effect | 

From patent US10315146B2, “Filter medium for deactivating allergens” (Carl Freudenberg KG, priority 2015, dated 2019)
